# Values of other authors in patent US6517822B1, “Formulations and methods for straightening hair” (priority 1998, dated 2003).
# How the values were obtained:
# [1] = molarity of 0.1
Structure (SMILES),tumor finding from oral exposure (animal studies),solute ionized at equilibrium (0.01 mole in a liter of water at room temperature),"acetic acid ionized (0.1 mol, final volume 1 liter)",electrical conductivity [1]
CC(N)=O [Acetamide],liver tumors,,,
CC(=O)O [acetic acid],,about 4%,1.3%,4.67 reciprocal ohms (mho)
